Measured values as given in ChEMBL document CHEMBL1201862, “PubChem BioAssay data set” (2004).
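Cells were grown in 96-well plates and exposed to each compound for 48 hours at five concentrations; endpoints were interpolated linearly between bracketing concentrations, or set to the highest concentration if not reached. Here, GI50 denotes the concentration required for 50% inhibition of growth.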 The source made the active and inactive calls. No stated cut-off is given here; in the data, active = GI50 up to about 1.1 µM and inactive = higher.

Columns and labels:
Test in all cases: growth of human tumour cells (NCI), 48 h
SW-620 = system: SW-620
MCF7 = system: MCF7
HT-29 = system: HT-29
SK-OV-3 = system: SK-OV-3
CCRF-CEM = system: CCRF-CEM
NCI-H226 = system: NCI-H226
NCI-H460 = system: NCI-H460
HCT-15 = system: HCT-15
MOLT-4 = system: MOLT-4
MDA-MB-231 = system: MDA-MB-231
MDA-N = system: MDA-N
SK-MEL-2 = system: SK-MEL-2
786-0 = system: 786-0
SF-539 = system: SF-539
K562 = system: K562
Hs-578T = system: Hs-578T
OVCAR-4 = system: OVCAR-4
LOX IMVI = system: LOX IMVI
HOP-62 = system: HOP-62
SR = system: SR

SMILES	GI50 (SW-620)	GI50 (MCF7)	GI50 (HT-29)	GI50 (SK-OV-3)	GI50 (CCRF-CEM)	GI50 (NCI-H226)	GI50 (NCI-H460)	GI50 (HCT-15) [µM]	GI50 (MOLT-4)	GI50 (MDA-MB-231)	GI50 (MDA-N)	GI50 (SK-MEL-2)	GI50 (786-0)	GI50 (SF-539)	GI50 (K562)	GI50 (Hs-578T)	GI50 (OVCAR-4)	GI50 (LOX IMVI)	GI50 (HOP-62)	GI50 (SR)
N#CC(c1ccccc1)N(CCOCCOCCN(C(=O)c1cccc2ccccc12)C(C#N)c1ccccc1)C(=O)c1cccc2ccccc12 (configuration not stated)	> 100 µM (inactive)	> 100 µM (inactive)	> 100 µM (inactive)	> 100 µM (inactive)	> 100 µM (inactive)	> 100 µM (inactive)	87.1 µM (inactive)	> 100	8.15 µM (inactive)	> 100 µM (inactive)	> 100 µM (inactive)	> 100 µM (inactive)	> 100 µM (inactive)	> 100 µM (inactive)	42.4 µM (inactive)	> 100 µM (inactive)	> 100 µM (inactive)	> 100 µM (inactive)		
COc1ccccc1CNC(=O)[C@H](Cc1ccc(O)cn1)NC(C)=O	> 100 µM (inactive)	> 100 µM (inactive)	> 100 µM (inactive)	> 100 µM (inactive)	> 100 µM (inactive)	> 100 µM (inactive)	> 100 µM (inactive)	> 100			> 100 µM (inactive)	> 100 µM (inactive)	> 100 µM (inactive)	> 100 µM (inactive)	> 100 µM (inactive)	> 100 µM (inactive)	> 100 µM (inactive)	> 100 µM (inactive)	> 100 µM (inactive)	> 100 µM (inactive)
COC(=O)c1cc(C#N)[nH]c1-c1cccs1	> 100 µM (inactive)			> 100 µM (inactive)	48.6 µM (inactive)	> 100 µM (inactive)	> 100 µM (inactive)	57.4	> 100 µM (inactive)	52.7 µM (inactive)	> 100 µM (inactive)		> 100 µM (inactive)	> 100 µM (inactive)	> 100 µM (inactive)		> 100 µM (inactive)		47.8 µM (inactive)	> 100 µM (inactive)
NC1=CN(Cc2ccccc2)C2=N/C(=C\c3ccccc3O)C(=O)N12	> 100 µM (inactive)	> 100 µM (inactive)	> 100 µM (inactive)	> 100 µM (inactive)	81.8 µM (inactive)	> 100 µM (inactive)	> 100 µM (inactive)	> 100	96.4 µM (inactive)	> 100 µM (inactive)	> 100 µM (inactive)	> 100 µM (inactive)	> 100 µM (inactive)	> 100 µM (inactive)	73.3 µM (inactive)	> 100 µM (inactive)	> 100 µM (inactive)	> 100 µM (inactive)	> 100 µM (inactive)	
O=CC12C3CCC1C2C(=O)C3 (configuration not stated)	> 100 µM (inactive)	> 100 µM (inactive)	> 100 µM (inactive)	> 100 µM (inactive)	> 100 µM (inactive)	> 100 µM (inactive)	> 100 µM (inactive)	> 100	> 100 µM (inactive)	> 100 µM (inactive)	> 100 µM (inactive)	> 100 µM (inactive)	> 100 µM (inactive)	> 100 µM (inactive)	> 100 µM (inactive)		> 100 µM (inactive)	> 100 µM (inactive)	> 100 µM (inactive)	> 100 µM (inactive)
Cc1ccc(-c2n[nH]c(=O)n2/N=C\c2ccc([N+](=O)[O-])cc2)cc1	> 71.9 µM (inactive)	99.5 µM (inactive)	> 65.6 µM (inactive)	> 100 µM (inactive)	> 32.1 µM (inactive)	> 100 µM (inactive)	> 100 µM (inactive)	86.7	> 42.2 µM (inactive)	9.75 µM (inactive)		> 100 µM (inactive)	> 100 µM (inactive)	> 100 µM (inactive)	32 µM (inactive)	41.1 µM (inactive)	> 100 µM (inactive)	> 100 µM (inactive)	52.4 µM (inactive)	31.8 µM (inactive)
C/C=C1\CC(C(=O)OCC)CCCCCCCCCCC1=O (configuration not stated)	38.5 µM (inactive)	32.8 µM (inactive)	46.8 µM (inactive)	> 100 µM (inactive)	37 µM (inactive)	25.1 µM (inactive)	54.1 µM (inactive)	34.6	29 µM (inactive)	58.6 µM (inactive)	29.4 µM (inactive)	36.1 µM (inactive)	70.1 µM (inactive)	> 100 µM (inactive)		28.9 µM (inactive)	55.5 µM (inactive)	28.8 µM (inactive)	> 100 µM (inactive)	
COC(=O)Cc1cc(O)c2c(c1O)C(=O)c1ccccc1C2=O	> 100 µM (inactive)		> 46.5 µM (inactive)	58.3 µM (inactive)	> 52.6 µM (inactive)	92.3 µM (inactive)	> 100 µM (inactive)	> 100	> 84.5 µM (inactive)	26.5 µM (inactive)	> 100 µM (inactive)	> 67.5 µM (inactive)	21.5 µM (inactive)	35.9 µM (inactive)	> 100 µM (inactive)	34 µM (inactive)	> 100 µM (inactive)	99.1 µM (inactive)	24.3 µM (inactive)	> 100 µM (inactive)
CC[C@@]1(OC(=O)CN(C)C)C(=O)OCc2c1cc1n(c2=O)Cc2cc3ccccc3nc2-1	0.098 µM (active)	0.00853 µM (active)	0.129 µM (active)	0.071 µM (active)	0.00256 µM (active)	0.0356 µM (active)	0.00533 µM (active)	0.228	0.00295 µM (active)	3.27 µM (inactive)	0.173 µM (active)	0.701 µM (active)	0.0259 µM (active)	0.0111 µM (active)	0.061 µM (active)	4.24 µM (inactive)	0.482 µM (active)	0.0198 µM (active)	0.0234 µM (active)	
C=C1CC2[C@H](C)C(=O)CCC2(C)C2=C1C1CCC(C(C)CCC(=C)C(C)C(=O)O)C1(C)CC2=O (some centres not stated)	61.7 µM (inactive)	83.9 µM (inactive)	62.1 µM (inactive)	89.5 µM (inactive)	11.8 µM (inactive)	82 µM (inactive)	34.4 µM (inactive)	40.5	16.8 µM (inactive)	> 100 µM (inactive)	95.3 µM (inactive)	> 100 µM (inactive)	20.4 µM (inactive)	97.3 µM (inactive)	9.75 µM (inactive)	> 100 µM (inactive)	48.4 µM (inactive)	17.9 µM (inactive)	45.4 µM (inactive)	
C#CCN(C(=O)C(F)(F)F)C(/C=C\C(=O)OC)(C(=O)OCC)C(=O)OCC	> 100 µM (inactive)	> 100 µM (inactive)	> 100 µM (inactive)	> 100 µM (inactive)	> 100 µM (inactive)	> 100 µM (inactive)	> 100 µM (inactive)	> 100	> 100 µM (inactive)	> 100 µM (inactive)	> 100 µM (inactive)	> 100 µM (inactive)	> 100 µM (inactive)	> 100 µM (inactive)	> 100 µM (inactive)	> 100 µM (inactive)	> 100 µM (inactive)	> 100 µM (inactive)	> 100 µM (inactive)	
O=C1Nc2ccccc2C(=O)O/C(Cc2ccccc2)=N\c2ccccc21	> 100 µM (inactive)	> 100 µM (inactive)	> 100 µM (inactive)	> 100 µM (inactive)	36.1 µM (inactive)	> 100 µM (inactive)	> 100 µM (inactive)	> 100	> 100 µM (inactive)		> 100 µM (inactive)	> 100 µM (inactive)	> 100 µM (inactive)	> 100 µM (inactive)	> 100 µM (inactive)		> 100 µM (inactive)	> 100 µM (inactive)	> 100 µM (inactive)	> 100 µM (inactive)
O=C1CC(c2ccc(Cl)cc2)C2(C(=O)NC(=O)NC2=O)C(c2ccc(Cl)cc2)C1 (configuration not stated)	26.2 µM (inactive)	22.3 µM (inactive)	23 µM (inactive)		30.3 µM (inactive)	16 µM (inactive)	28.6 µM (inactive)	22.9	0.0075 µM (active)	13.4 µM (inactive)	19.8 µM (inactive)	15.6 µM (inactive)	25.1 µM (inactive)	28.2 µM (inactive)	7.5 µM (inactive)		38.5 µM (inactive)	31.4 µM (inactive)	22.9 µM (inactive)	
CCSc1n/c(=C\c2ccc(N(C)C)cc2)c2nnnn12	> 100 µM (inactive)	> 100 µM (inactive)	> 100 µM (inactive)	> 100 µM (inactive)	> 100 µM (inactive)	> 100 µM (inactive)	> 100 µM (inactive)	> 100	> 100 µM (inactive)	> 100 µM (inactive)	> 100 µM (inactive)	> 100 µM (inactive)	> 100 µM (inactive)			> 100 µM (inactive)	> 100 µM (inactive)		> 100 µM (inactive)	
COc1cc2c(c(OC)c1OC)-c1ccc(OC)c(=O)cc1C(NC(=O)c1ccc(N=[N+]=[N-])cc1)CC2 (configuration not stated)	0.0312 µM (active)	0.0144 µM (active)	0.0288 µM (active)	0.0292 µM (active)	0.0316 µM (active)	0.451 µM (active)	0.031 µM (active)	0.111	0.0411 µM (active)	0.0352 µM (active)		0.0327 µM (active)	0.0446 µM (active)	0.0238 µM (active)	0.0246 µM (active)	0.084 µM (active)	1.24 µM (inactive)	0.0423 µM (active)	0.0413 µM (active)	0.0435 µM (active)
